According to paper PMC3685885 (Toxicology and applied pharmacology, 2013):
Values joined by “and” are separate entries in the source; they are usually repeats but may differ in a detail not shown here. Equal values may be shown once. Read-outs that look alike come from different tables or passages of the source.

Experiments:
human CB2Rs [1] = biological target: T1, human CB2Rs (Homo sapiens, UniProt P34972); assay: [35S]GTPγS binding; type: biochemical; conditions: CHO-hCB2 membranes; for Intrinsic activity at CB2Rs, G-protein activation: agonists at 10 µM compared to CP-55,940; for CB2R Efficacy (EMAX) G-protein Activation: 10 µM, [35S]GTPγS binding, mean ± SEM
human CB2Rs [2] = biological target: T1, human CB2Rs; assay: [3H]CP-55,940 competition receptor binding in CHO-hCB2 membranes
[3] = biological target: human mu-opioid receptors (Homo sapiens, UniProt P35372); assay: [35S]GTPγS binding; type: biochemical; conditions: 10 µM, membranes not expressing hCB2Rs
human CB2Rs [4] = biological target: T1, human CB2Rs; assay: Inhibition of forskolin-stimulated adenylyl cyclase; type: cell-based; conditions: for CB2R Efficacy (EMAX) AC-Inhibition: 10 µM; for Potency to regulate AC-activity relative to the parent compound: IC50 metabolite versus parent; for Intrinsic activity at CB2Rs, AC-inhibition: 10 µM compared to CP-55,940; for FRO for 50% AC-Inhibition: fractional CB2R occupancy at AC-IC50, FRO = [DRUG] / (Ki + [DRUG])
[5] = intact CHO-hCB2 cells, mean ± SEM
[6] = read-out: CB2R Affinity (Ki), [3H]CP-55,940 0.2 nM, CHO-hCB2 membranes, mean ± SEM
[7] = read-out: Potency for AC-Inhibition (IC50), intact CHO-hCB2 cells, 30 µM forskolin, mean ± SEM

T1 sequence (P34972 whole entry): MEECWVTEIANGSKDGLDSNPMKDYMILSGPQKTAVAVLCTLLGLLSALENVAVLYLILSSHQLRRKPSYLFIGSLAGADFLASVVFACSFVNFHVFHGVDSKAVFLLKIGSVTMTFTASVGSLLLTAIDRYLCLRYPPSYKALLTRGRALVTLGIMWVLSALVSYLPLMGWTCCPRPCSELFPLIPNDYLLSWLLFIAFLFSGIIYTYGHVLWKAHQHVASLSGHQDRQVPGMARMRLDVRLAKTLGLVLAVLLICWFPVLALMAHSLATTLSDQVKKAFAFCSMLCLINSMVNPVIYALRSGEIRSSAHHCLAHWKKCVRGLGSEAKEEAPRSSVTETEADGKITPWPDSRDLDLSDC
Sequence of human mu-opioid receptors (P35372 whole entry): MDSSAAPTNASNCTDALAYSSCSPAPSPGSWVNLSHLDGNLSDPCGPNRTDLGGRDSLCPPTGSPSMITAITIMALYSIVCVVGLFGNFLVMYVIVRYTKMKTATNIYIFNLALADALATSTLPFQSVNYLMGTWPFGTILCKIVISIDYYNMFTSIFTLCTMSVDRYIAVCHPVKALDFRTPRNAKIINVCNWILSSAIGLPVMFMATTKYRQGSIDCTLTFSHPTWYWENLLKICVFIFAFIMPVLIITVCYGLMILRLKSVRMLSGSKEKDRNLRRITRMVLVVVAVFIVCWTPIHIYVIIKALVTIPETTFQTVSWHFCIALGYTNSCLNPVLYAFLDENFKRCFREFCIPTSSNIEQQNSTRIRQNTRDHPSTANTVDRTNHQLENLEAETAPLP

Compound | Intrinsic activity at CB2Rs, G-protein activation (human CB2Rs [1]) | CB2R Efficacy (EMAX) G-protein Activation (human CB2Rs [1]) | CB2R Efficacy (EMAX) AC-Inhibition (human CB2Rs [4]; [5]) | Ki (human CB2Rs [2]; [6]) [nM] | further results
COc1ccc(C(=O)c2c(C)n(CCN3CCOCC3)c3cc(I)ccc23)cc1 [AM-630, reference compound] | acted as inverse agonists | – | – | – | –
CCCCCOc1c(OC)ccc2cc(C(=O)NCc3ccc4c(c3)OCO4)c(=O)[nH]c12 [JTE-907, reference compound] | acted as inverse agonists | – | – | – | –
CCCCCn1cc(C(=O)c2cccc3ccccc23)c2ccccc21 [JWH-018, 1-pentyl-3-(1-naphthoyl)indole] | – | 60.3 ± 11.4 (7) fmole/mg | 59.3 ± 4.0 (4) % Inhibition | – | Ki (human CB2Rs [2]): 5.6 ± 2.4 nM; Effect on G-protein activity in CHO-hMOR membranes [3]: failed to significantly alter G-protein activity; IC50 (human CB2Rs [4]): 3.6 ± 2.2 nM
O=C(c1cccc2ccccc12)c1cn(CCCCCO)c2ccccc12 [JWH-018-M5] | – | 38.4 ± 8.5 (5) fmole/mg | 53.5 ± 4.6 (4) % Inhibition | 47.4 ± 10.1 | Potency to regulate AC-activity relative to the parent compound (human CB2Rs [4]): ~5 fold; Intrinsic activity at CB2Rs, AC-inhibition (human CB2Rs [4]; intact CHO-hCB2 cells): partial CB2R agonists; IC50 (human CB2Rs [4]; [7]): 17.7 ± 5.5 nM
O=C(O)CCCCn1cc(C(=O)c2cccc3ccccc23)c2ccccc21 [JWH-018-M6] | – | – | – | > 10000 | CB2R affinity (human CB2Rs [2]; CHO-hCB2 membranes): lack affinity for CB2Rs
CCCCn1cc(C(=O)c2cccc3ccccc23)c2ccccc21 [JWH-073, 1-butyl-3-(1-naphthoyl)indole] | – | 40.1 ± 4.2 (3) fmole/mg | 62.6 ± 2.7 (3) % Inhibition | – | Effect on G-protein activity in CHO-hMOR membranes [3]: failed to significantly alter G-protein activity; IC50 (human CB2Rs [4]): 16.9 ± 1.9 nM; FRO for 50% AC-Inhibition (human CB2Rs [4]): 62.5% and 62.5 ± 3.0 (5) %; Intrinsic activity at CB2Rs, AC-inhibition (human CB2Rs [4]; intact CHO-hCB2 cells): full agonists
O=C(c1cccc2ccccc12)c1cn(CCCCO)c2ccccc12 [JWH-073-M5] | – | 31.0 ± 1.0 (3) fmole/mg | 54.2 ± 5.9 (4) % Inhibition | 96 ± 7.1 | Potency to regulate AC-activity relative to the parent compound (human CB2Rs [4]): equipotent; FRO for 50% AC-Inhibition (human CB2Rs [4]): 12.1% and 12.1 ± 1.6 (3) %; IC50 (human CB2Rs [4]; [7]): 13.3 ± 2 nM
O=C(O)CCCn1cc(C(=O)c2cccc3ccccc23)c2ccccc21 [JWH-073-M6] | – | – | – | > 10000 | CB2R affinity (human CB2Rs [2]; CHO-hCB2 membranes): lack affinity for CB2Rs
SR-144528 [reference compound] | acted as inverse agonists | – | – | – | –
